pIC50: −log10 of the molar value.
Tests used:
[1] = target: Cyclin-dependent kinase/G2/mitotic-specific cyclin- 1 (Homo sapiens, UniProt P06493); assay: Biochemical CDK Inhibition Assay
Procedure: (§1) nhibitory effects of the compounds of the disclosure were measured in biochemical assays that measure the enzymatic phosphorylation activity of CDK enzyme in complex of Cyclin proteins phosphorylates 7.5 micromolar fluorescently labelled peptide substrate, 5-FAM-QSPKKG-CONH2, (FL-Peptide 18, Perkin Elmer, 760362) in the presence of adenosine-5′-triphosphate (ATP) and varying concentrations of the test compound in 100 mM 2-[4-(2-hydroxyethyl)piperazin-1-yl]ethanesulfonic acid (HEPES), pH 7.5, 10 mM MgCl2, 0.015% Brij-35, 1 mM dithiothreitol (DTT), 1.0% dimethylsulfoxide (DMSO). Assays were performed at 1.0 mM ATP or at ATP Km of the CDK enzymes in complex with Cyclin proteins. Reactions proceeded until between 10% to 20% total peptides were phosphorylated at room temperature (25° C.) and were terminated with 35 mM 2,2′,2″,2′″-(ethane-1,2-diyldinitrilo)tetraacetic acid (EDTA). Product was detected using the Caliper mobility shift detection method where the phosphorylated peptide (product) and substrate were electrophoretically separated and measured. Percent activity was plotted against log concentration of compound and points to generate an apparent IC50. The following CDK enzymes in complex with different cyclin proteins were used in these assays:CDK1/Cyclin B1, GST-tag (BPS, 40454), 1.5 nM used in the assayCDK2/Cyclin E (Eurofins, 14-475), 1.25 nM used in the assays

[2] = target: Cyclin-dependent kinase 2/G1/S-specific cyclin-E1 (Homo sapiens, UniProt P24941); assay: Biochemical CDK Inhibition Assay
Procedure: as §1

Cyclin-dependent kinase/G2/mitotic-specific cyclin- 1, sequence (P06493 whole entry): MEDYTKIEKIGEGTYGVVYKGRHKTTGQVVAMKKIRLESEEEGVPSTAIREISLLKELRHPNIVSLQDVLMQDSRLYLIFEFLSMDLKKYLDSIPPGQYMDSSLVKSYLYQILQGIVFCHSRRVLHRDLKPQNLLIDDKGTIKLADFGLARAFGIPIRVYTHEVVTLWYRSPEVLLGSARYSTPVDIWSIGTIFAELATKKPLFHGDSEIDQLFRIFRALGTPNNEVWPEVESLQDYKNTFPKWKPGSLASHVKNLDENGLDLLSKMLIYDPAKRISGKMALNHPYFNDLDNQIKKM
Cyclin-dependent kinase/G2/mitotic-specific cyclin- 1, sequence (P14635 whole entry, further chain): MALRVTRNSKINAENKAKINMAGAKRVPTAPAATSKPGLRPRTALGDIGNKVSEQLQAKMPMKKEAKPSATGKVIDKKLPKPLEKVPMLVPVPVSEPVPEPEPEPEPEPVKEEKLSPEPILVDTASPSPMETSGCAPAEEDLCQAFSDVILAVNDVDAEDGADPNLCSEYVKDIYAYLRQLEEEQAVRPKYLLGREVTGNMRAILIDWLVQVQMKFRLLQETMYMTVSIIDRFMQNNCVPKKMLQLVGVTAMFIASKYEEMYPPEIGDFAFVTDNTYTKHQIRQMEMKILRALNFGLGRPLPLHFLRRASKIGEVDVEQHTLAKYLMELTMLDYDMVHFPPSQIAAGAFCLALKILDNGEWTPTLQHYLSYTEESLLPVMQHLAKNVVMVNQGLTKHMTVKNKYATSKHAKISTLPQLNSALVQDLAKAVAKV

CC1(NC(=O)O[C@@H]2CC[C@H](c3cc(Nc4cnc(C#N)cn4)n[nH]3)C2)CC1 [US20250074895, Compound 1]
pIC50 [1]: 6.52 | pIC50 [2]: > 8.00

CC1(NC(=O)O[C@@H]2CC[C@H](c3cc(Nc4cc(C#N)ccn4)n[nH]3)C2)CC1 [US20250074895, Compound 2]
pIC50 [1]: > 7.00 | pIC50 [2]: > 8.00

CC1(NC(=O)O[C@@H]2CC[C@H](c3cc(Nc4ccnc(C#N)n4)n[nH]3)C2)CC1 [US20250074895, Compound 3]
pIC50 [1]: > 7.00 | pIC50 [2]: > 8.00

Cc1nc(C#N)cnc1Nc1cc([C@H]2CC[C@@H](OC(=O)NC3(C)CC3)C2)[nH]n1 [US20250074895, Compound 4]
pIC50 [1]: < 6.30 | pIC50 [2]: > 8.00

CC1(NC(=O)O[C@@H]2CC[C@H](c3cc(Nc4cc(C#N)cnn4)n[nH]3)C2)CC1 [US20250074895, Compound 5]
pIC50 [1]: 6.52 | pIC50 [2]: > 8.00

Cc1nccnc1Nc1cc([C@H]2CC[C@@H](OC(=O)NC3(C)CC3)C2)[nH]n1 [US20250074895, Compound 6]
pIC50 [1]: < 6.30 | pIC50 [2]: > 8.00

Cc1cncc(Nc2cc([C@H]3CC[C@@H](OC(=O)NC4(C)CC4)C3)[nH]n2)n1 [US20250074895, Compound 7]
pIC50 [1]: > 7.00 | pIC50 [2]: > 8.00

CC1(NC(=O)O[C@@H]2CC[C@H](c3cc(Nc4cnc(OC(F)F)cn4)n[nH]3)C2)CC1 [US20250074895, Compound 8]
pIC50 [1]: 6.52 | pIC50 [2]: > 8.00

Cc1nc(Nc2cc([C@H]3CC[C@@H](OC(=O)NC4(C)CC4)C3)[nH]n2)cnc1C#N [US20250074895, Compound 9]
pIC50 [1]: > 7.00 | pIC50 [2]: > 8.00

CC1(NC(=O)O[C@@H]2CC[C@H](c3cc(Nc4ccnc(C(F)(F)F)n4)n[nH]3)C2)CC1 [US20250074895, Compound 10]
pIC50 [1]: > 7.00 | pIC50 [2]: > 8.00

CC1(NC(=O)O[C@@H]2CC[C@H](c3cc(Nc4cncc(C#N)n4)n[nH]3)C2)CC1 [US20250074895, Compound 11]
pIC50 [1]: > 7.00 | pIC50 [2]: > 8.00

CC1(NC(=O)O[C@@H]2CC[C@H](c3cc(Nc4ccc(C#N)cn4)n[nH]3)C2)CC1 [US20250074895, Compound 12]
pIC50 [1]: 6.52 | pIC50 [2]: > 8.00

CC1(NC(=O)O[C@@H]2CC[C@H](c3cc(Nc4ccccn4)n[nH]3)C2)CC1 [US20250074895, Compound 13]
pIC50 [1]: < 6.30 | pIC50 [2]: 7.82

Cc1c(C#N)ccnc1Nc1cc([C@H]2CC[C@@H](OC(=O)NC3(C)CC3)C2)[nH]n1 [US20250074895, Compound 14]
pIC50 [1]: < 6.30 | pIC50 [2]: > 8.00

Cc1cc(C#N)cc(Nc2cc([C@H]3CC[C@@H](OC(=O)NC4(C)CC4)C3)[nH]n2)n1 [US20250074895, Compound 15]
pIC50 [1]: > 7.00 | pIC50 [2]: > 8.00

CC1(NC(=O)O[C@@H]2CC[C@H](c3cc(Nc4cc(C#N)ncn4)n[nH]3)C2)CC1 [US20250074895, Compound 16]
pIC50 [1]: > 7.00 | pIC50 [2]: > 8.00

CC1(NC(=O)O[C@@H]2CC[C@H](c3cc(Nc4cnc(C(C)(C)O)cn4)n[nH]3)C2)CC1 [US20250074895, Compound 17]
pIC50 [1]: 6.52 | pIC50 [2]: > 8.00

CC1(NC(=O)O[C@@H]2CC[C@H](c3cc(Nc4ccc(C#N)nn4)n[nH]3)C2)CC1 [US20250074895, Compound 18]
pIC50 [1]: < 6.30 | pIC50 [2]: 7.82

Cc1cnc(C#N)nc1Nc1cc([C@H]2CC[C@@H](OC(=O)NC3(C)CC3)C2)[nH]n1 [US20250074895, Compound 19]
pIC50 [1]: 6.52 | pIC50 [2]: > 8.00

Cc1cc(C#N)cnc1Nc1cc([C@H]2CC[C@@H](OC(=O)NC3(C)CC3)C2)[nH]n1 [US20250074895, Compound 20]
pIC50 [1]: < 6.30 | pIC50 [2]: > 8.00

C[C@H](O)c1cnc(Nc2cc([C@H]3CC[C@@H](OC(=O)NC4(C)CC4)C3)[nH]n2)cn1 [US20250074895, Compound 21]
pIC50 [1]: 6.52 | pIC50 [2]: > 8.00

C[C@@H](O)c1cnc(Nc2cc([C@H]3CC[C@@H](OC(=O)NC4(C)CC4)C3)[nH]n2)cn1 [US20250074895, Compound 22]
pIC50 [1]: 6.52 | pIC50 [2]: > 8.00

CNc1nncc(Nc2cc([C@H]3CC[C@@H](OC(=O)NC4(C)CC4)C3)[nH]n2)n1 [US20250074895, Compound 23]
pIC50 [1]: > 7.00 | pIC50 [2]: > 8.00

COc1cncc(Nc2cc([C@H]3CC[C@@H](OC(=O)NC4(C)CC4)C3)[nH]n2)n1 [US20250074895, Compound 24]
pIC50 [1]: 6.52 | pIC50 [2]: > 8.00

COc1nccc(Nc2cc([C@H]3CC[C@@H](OC(=O)NC4(C)CC4)C3)[nH]n2)n1 [US20250074895, Compound 25]
pIC50 [1]: 6.52 | pIC50 [2]: > 8.00

CC1(NC(=O)O[C@@H]2CC[C@H](c3cc(Nc4cnccn4)n[nH]3)C2)CC1 [US20250074895, Compound 26]
pIC50 [1]: 6.52 | pIC50 [2]: > 8.00

Cc1cnc(Nc2cc([C@H]3CC[C@@H](OC(=O)NC4(C)CC4)C3)[nH]n2)cn1 [US20250074895, Compound 27]
pIC50 [1]: 6.52 | pIC50 [2]: > 8.00

COc1cnc(Nc2cc([C@H]3CC[C@@H](OC(=O)NC4(C)CC4)C3)[nH]n2)cn1 [US20250074895, Compound 28]
pIC50 [1]: 6.52 | pIC50 [2]: > 8.00

CC1(NC(=O)O[C@@H]2CC[C@H](c3cc(Nc4cncc(C5CC5)n4)n[nH]3)C2)CC1 [US20250074895, Compound 29]
pIC50 [1]: > 7.00 | pIC50 [2]: > 8.00

CC1(NC(=O)O[C@@H]2CC[C@H](c3cc(Nc4cnc(C(F)(F)F)cn4)n[nH]3)C2)CC1 [US20250074895, Compound 30]
pIC50 [1]: 6.52 | pIC50 [2]: > 8.00

CC1(NC(=O)O[C@@H]2CC[C@H](c3cc(Nc4cnc(F)cn4)n[nH]3)C2)CC1 [US20250074895, Compound 31]
pIC50 [1]: > 7.00 | pIC50 [2]: > 8.00

CN(C)c1cnc(Nc2cc([C@H]3CC[C@@H](OC(=O)NC4(C)CC4)C3)[nH]n2)cn1 [US20250074895, Compound 32]
pIC50 [1]: < 6.30 | pIC50 [2]: > 8.00

CC1(NC(=O)O[C@@H]2CC[C@H](c3cc(Nc4ccnc(C(F)F)n4)n[nH]3)C2)CC1 [US20250074895, Compound 33]
pIC50 [1]: > 7.00 | pIC50 [2]: > 8.00

Cc1nccc(Nc2cc([C@H]3CC[C@@H](OC(=O)NC4(C)CC4)C3)[nH]n2)n1 [US20250074895, Compound 34]
pIC50 [1]: 6.52 | pIC50 [2]: > 8.00

CC1(NC(=O)O[C@@H]2CC[C@H](c3cc(Nc4cnc(S(C)(=O)=O)cn4)n[nH]3)C2)CC1 [US20250074895, Compound 35]
pIC50 [1]: < 6.30 | pIC50 [2]: > 8.00

CC1(NC(=O)O[C@@H]2CC[C@H](c3cc(Nc4cnc(C(F)F)cn4)n[nH]3)C2)CC1 [US20250074895, Compound 36]
pIC50 [1]: > 7.00 | pIC50 [2]: > 8.00

COCc1cnc(Nc2cc([C@H]3CC[C@@H](OC(=O)NC4(C)CC4)C3)[nH]n2)cn1 [US20250074895, Compound 37]
pIC50 [1]: 6.52 | pIC50 [2]: > 8.00

CC1(NC(=O)O[C@@H]2CC[C@H](c3cc(Nc4cccnn4)n[nH]3)C2)CC1 [US20250074895, Compound 38]
pIC50 [1]: < 6.30 | pIC50 [2]: 7.82

CC1(NC(=O)O[C@@H]2CC[C@H](c3cc(Nc4ccncn4)n[nH]3)C2)CC1 [US20250074895, Compound 39]
pIC50 [1]: 6.52 | pIC50 [2]: > 8.00

Cc1cncnc1Nc1cc([C@H]2CC[C@@H](OC(=O)NC3(C)CC3)C2)[nH]n1 [US20250074895, Compound 40]
pIC50 [1]: < 6.30 | pIC50 [2]: 7.82

CC1(NC(=O)O[C@@H]2CC[C@H](c3cc(Nc4cnc(Cl)cn4)n[nH]3)C2)CC1 [US20250074895, Compound 41]
pIC50 [1]: < 6.30 | pIC50 [2]: > 8.00

CC1(NC(=O)O[C@@H]2CC[C@H](c3cc(Nc4nccnn4)n[nH]3)C2)CC1 [US20250074895, Compound 42]
pIC50 [1]: < 6.30 | pIC50 [2]: 7.60

CNc1nc(Nc2cc([C@H]3CC[C@@H](OC(=O)NC4(C)CC4)C3)[nH]n2)cnc1C#N [US20250074895, Compound 43]
pIC50 [1]: 6.52 | pIC50 [2]: > 8.00

CN(C)c1nncc(Nc2cc([C@H]3CC[C@@H](OC(=O)NC4(C)CC4)C3)[nH]n2)n1 [US20250074895, Compound 44]
pIC50 [1]: > 7.00 | pIC50 [2]: > 8.00

COc1cnc(Nc2cc([C@H]3CC[C@@H](OC(=O)NC4(C)CC4)C3)[nH]n2)c(C)n1 [US20250074895, Compound 45]
pIC50 [1]: < 6.30 | pIC50 [2]: > 8.00

CC1(NC(=O)O[C@@H]2CC[C@H](c3cc(Nc4ccnc(CO)n4)n[nH]3)C2)CC1 [US20250074895, Compound 46]
pIC50 [1]: 6.52 | pIC50 [2]: > 8.00

Cc1nc(CO)cnc1Nc1cc([C@H]2CC[C@@H](OC(=O)NC3(C)CC3)C2)[nH]n1 [US20250074895, Compound 47]
pIC50 [1]: < 6.30 | pIC50 [2]: > 8.00

CNc1nccc(Nc2cc([C@H]3CC[C@@H](OC(=O)NC4(C)CC4)C3)[nH]n2)n1 [US20250074895, Compound 48]
pIC50 [1]: 6.52 | pIC50 [2]: > 8.00

CC1(C)CCN1C(=O)O[C@@H]1CC[C@H](c2cc(Nc3cnc(CO)cn3)n[nH]2)C1 [US20250074895, Compound 49]
pIC50 [1]: > 7.00 | pIC50 [2]: > 8.00

C[C@@H](O)c1cnc(Nc2cc([C@H]3CC[C@@H](OC(=O)N4CCC4(C)C)C3)[nH]n2)cn1 [US20250074895, Compound 51]
pIC50 [1]: > 7.00 | pIC50 [2]: > 8.00
